Data from ChEMBL document CHEMBL3085759, “Structure-activity relationship (SAR) and preliminary mode of action studies of 3-substituted benzylthioquinolinium iodide as anti-opportunistic infection agents” (Eur J Med Chem, 2013).
≈ marks a conversion by molar mass, not a printed value.

What was measured:
Staphylococcus aureus [1] = assay: Antimicrobial activity against Staphylococcus aureus ATCC 29213 by Alamar blue method; assay type: functional, organism-based; settings: Staphylococcus aureus, ATCC 29213; for IC50: read-out: IC50
Aspergillus fumigatus = assay: Antimicrobial activity against Aspergillus fumigatus ATCC 204305 by Alamar blue method; assay type: functional, organism-based
Pichia kudriavzevii = assay: Antimicrobial activity against Candida krusei ATCC 6258 by Alamar blue method; assay type: functional, organism-based
Candida albicans = assay: Antimicrobial activity against Candida albicans ATCC 90028 by Alamar blue method; assay type: functional, organism-based
Staphylococcus aureus [2] = assay: Antimicrobial activity against methicillin-resistant Staphylococcus aureus ATCC 33591 by Alamar blue method; assay type: functional, organism-based
[3] = tested on: Mycobacterium intracellulare; assay: Antimicrobial activity against Mycobacterium intracellulare ATCC 23068 by Alamar blue method; assay type: functional, organism-based
Nakaseomyces glabratus = assay: Antimicrobial activity against Candida glabrata by Alamar blue method; assay type: functional, organism-based
Vero = assay: Cytotoxicity against african green monkey Vero cells at 10 ug/ml after 48 hrs by Neutral Red dye assay; assay type: cell-based; settings: chlorocebus sabaeus
Cryptococcus neoformans = assay: Antimicrobial activity against Cryptococcus neoformans ATCC 90113 by Alamar blue method; assay type: functional, organism-based

Structure (SMILES)	MBC (Staphylococcus aureus [1]) [µg/mL]	MIC (Staphylococcus aureus [1]) [µg/mL]	IC50 (Staphylococcus aureus [1]) [µg/mL]	IC50 (Aspergillus fumigatus) [µg/mL]	MFC (Aspergillus fumigatus) [µg/mL]	MIC (Aspergillus fumigatus) [µg/mL]	IC50 (Pichia kudriavzevii) [µg/mL]	MFC (Pichia kudriavzevii) [µg/mL]	MIC (Pichia kudriavzevii) [µg/mL]	IC50 (Candida albicans) [µg/mL]	MFC (Candida albicans) [µg/mL]	MIC (Candida albicans) [µg/mL]	IC50 (Staphylococcus aureus [2]) [µg/mL]	MBC (Staphylococcus aureus [2]) [µg/mL]	MIC (Staphylococcus aureus [2]) [µg/mL]	IC50 [3] [µg/mL]	MIC [3] [µg/mL]	IC50 (Nakaseomyces glabratus) [µg/mL]	MFC (Nakaseomyces glabratus) [µg/mL]	MIC (Nakaseomyces glabratus) [µg/mL]	also measured
Clc1ccc(CSc2cc3ccccc3[n+](CCCCCC3CCCCC3)c2)cc1Cl.[I-]	2.5	2.5	0.5	2.8	5	5	0.3	1.3	1.3	1.1	2.5	2.5	0.18	1.3	1.3	4.5	5	3	5	5	MBC [3]: 10 µg/mL; Activity (Vero): Non-toxic; IC50 (Cryptococcus neoformans): 0.45 µg/mL; MFC (Cryptococcus neoformans): 0.63 µg/mL; MIC (Cryptococcus neoformans): 0.63 µg/mL
Ic1cc2ccccc2[n+](CCCCCC2CCCCC2)c1.[I-]	> 20	> 20	18	> 20	> 20	> 20	1.7	10	10	> 20	> 20	> 20	> 20	> 20	> 20	> 20	> 20	> 20	> 20	> 20	MBC [3]: > 20 µg/mL; IC50 (Cryptococcus neoformans): 5.8 µg/mL; MFC (Cryptococcus neoformans): 10 µg/mL; MIC (Cryptococcus neoformans): 10 µg/mL
COc1ccc(CSc2cc3ccccc3[n+](CCCCCC3CCCCC3)c2)cc1.[I-]	2.5	0.31	0.18	5.4	10	10	0.37	1.3	0.63	1.2	5	5	0.36	2.5	0.63	1.7	2.5	3	10	10	MBC [3]: 2.5 µg/mL; Activity (Vero): Non-toxic; IC50 (Cryptococcus neoformans): 0.18 µg/mL; MFC (Cryptococcus neoformans): 0.63 µg/mL; MIC (Cryptococcus neoformans): 0.31 µg/mL
[I-].c1ccc(Oc2cc3ccccc3[n+](CCCCCC3CCCCC3)c2)cc1	> 20	> 20	19	> 20	> 20	> 20	> 20	> 20	> 20	> 20	> 20	> 20	> 20	> 20	> 20	> 20	> 20	> 20	> 20	> 20	MBC [3]: > 20 µg/mL; IC50 (Cryptococcus neoformans): > 20 µg/mL; MFC (Cryptococcus neoformans): > 20 µg/mL; MIC (Cryptococcus neoformans): > 20 µg/mL
COc1ccccc1CSc1cc2ccccc2[n+](CCCCCC2CCCCC2)c1.[I-]	5	0.63	0.31	9.8	> 20	20	0.75	2.5	2.5	2.8	5	5	0.35	5	0.63	3	5	8.2	20	20	MBC [3]: 5 µg/mL; Activity (Vero): Non-toxic; IC50 (Cryptococcus neoformans): 0.34 µg/mL; MFC (Cryptococcus neoformans): 2.5 µg/mL; MIC (Cryptococcus neoformans): 0.63 µg/mL
[I-].c1ccc(CCSc2cc3ccccc3[n+](CCCCCC3CCCCC3)c2)cc1	10	1.3	0.73	19	> 20	> 20	0.69	5	5	3.6	> 20	> 20	1.2	10	2.5	12	20	9.5	> 20	20	IC50 (Cryptococcus neoformans): 0.73 µg/mL; MFC (Cryptococcus neoformans): 1.3 µg/mL; MIC (Cryptococcus neoformans): 1.3 µg/mL
O=C(O)c1cn(C2CC2)c2cc(N3CCNCC3)c(F)cc2c1=O [CIPROFLOXACIN]	–	0.5 (≈ 1.51 µM)	–	–	–	–	–	–	–	–	–	–	–	–	0.5 (≈ 1.51 µM)	0.005 (≈ 0.0151 µM)	0.45 (≈ 1.36 µM)	–	–	–	–
[I-].c1ccc2c(c1)cc(SC1CCCCC1)c[n+]2CCCCCC1CCCCC1	10	1.3	0.74	> 20	> 20	> 20	0.35	2.5	2.5	> 20	> 20	> 20	1.2	10	2.5	8.4	10	15	> 20	> 20	MBC [3]: 10 µg/mL; IC50 (Cryptococcus neoformans): 1.2 µg/mL; MFC (Cryptococcus neoformans): 2.5 µg/mL; MIC (Cryptococcus neoformans): 2.5 µg/mL
